Data on one compound can be found in patent publication US8981068B2, “Compositions of standardized mixtures for determining an amount of a nucleic acid” (Gene Express, Inc., priority 2005, dated 2015).

Data set [1] relates to cytochrome p450 (CYP) IAI gene. The data set can be described thus: MC RT-PCR with Celi competitive templates: induction of CYPIAI gene expression in β-napthoflavone-exposed BEP2D cells. It is filed as cell-based, human. Particulars: β-napthoflavone 10 μM, varying times, control 0.1% DMSO, cDNA loading matched by GAPDH native/competitive template bands. How it is done:
(§1) In a second set of experiments, multiplex competitive reverse transcriptase polymerase chain reaction (MC RT-PCR) with competitive templates were prepared by the Celi method to evaluate the cytochrome p450 (CYP) IAI gene in β-napthoflavone-exposed BEP2D cells. The induction of CYPIAI gene expression was evaluated using both MC RT-PCR with Celi competitive templates, and Northern analysis. Competitive templates were prepared for both the CYPIAI and GAPDH genes. The primers used to prepare the competitive template for GAPDH were: […]
The PCR amplification conditions were the same as described for experiments using the competitive templates prepared for GAPDH and GSHPx by the Higuchi method except the annealing temperature was 55 degrees centigrade and the amplification was carried out for 38 cycles.
Because the native and competitive templates separate without prior restriction endonuclease digestion, samples were taken directly from the PCR reaction tube and applied to ethidium bromide stained 3% Nusieve, 1% LE agarose gels. It was then possible to quantify the products by taking a negative photograph of the gel using Polaroid 665 positive/negative instant film, subjecting the negative photograph to densitometry. […]

Data set [2] has as its system cytochrome p450 IA1 (CYPIA1). The data set is described as follows: Northern analysis of CYPIAI gene expression in β-napthoflavone-exposed BEP2D cells. The data set is classed as cell-based, human. The conditions noted are these: β-napthoflavone 10 μM, varying times, control 0.1% DMSO, 32P-labeled CYPIAI cDNA probe. Here is the method: as §1
RNA from BEP2D cells incubated for varying times with β-napthoflavone (10 μM) was either electrophoresed on a 1% LE formaldehyde denaturing gel for Northern analysis or MC RT-PCR amplified, as described above. For Northern analysis, following transfer of the RNA to GeneScreen, the filters were hybridized with ^32P-labeled CYPIAI cDNA.

In the case of `O=c1cc(-c2ccccc2)oc2ccc3ccccc3c12` [β-napthoflavone], the “band representing the native CYPIAI gene, exposed cells compared to control cells” value in data set [1] was “much more strongly represented”. In data set [2], the “CYPIAI gene expression by Northern analysis” value is on record as “increase”.
